Measurements as given in PMC8766924 (Angewandte Chemie (International ed. in English), 2021).

Key:
Y5R [1] = test: Calcium flux assay of NPY analogs; format: cell-based; details: Figure 3B-C, at least two independent experiments in triplicates
A^4.67-Y5R = target: T1, A^4.67-Y5R (Homo sapiens, UniProt Q15761, V181A); format: cell-based; details: Figure 6C; transiently transfected COS-7
T1 sequence (Q15761 1-445 V181A): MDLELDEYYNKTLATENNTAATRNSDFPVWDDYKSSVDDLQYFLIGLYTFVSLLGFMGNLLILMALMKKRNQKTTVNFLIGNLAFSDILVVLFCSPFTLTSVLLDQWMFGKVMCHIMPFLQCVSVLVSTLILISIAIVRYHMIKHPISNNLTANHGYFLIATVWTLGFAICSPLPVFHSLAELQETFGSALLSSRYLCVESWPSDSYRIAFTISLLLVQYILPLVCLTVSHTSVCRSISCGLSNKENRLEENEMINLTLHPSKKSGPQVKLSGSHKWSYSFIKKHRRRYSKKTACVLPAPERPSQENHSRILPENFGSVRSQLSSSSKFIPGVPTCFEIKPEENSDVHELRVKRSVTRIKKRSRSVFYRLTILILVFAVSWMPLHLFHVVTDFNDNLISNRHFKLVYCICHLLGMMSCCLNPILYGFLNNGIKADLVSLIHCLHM

Y5R [2] = details: still binds Y5R but not other Y receptors; cited from earlier work

Row | Substance | Potency loss at wt Y5R compared to NPY (Y5R [1]) [fold] | also measured
1 | [Y^36A]-NPY: NPY with Y^36 substituted by Ala | 43 | –
2 | A^28-NPY: NPY analog carrying Ala at position 28 | – | Potency at A^4.67-Y5R compared to wt NPY (A^4.67-Y5R): lower potency
3 | T32P-NPY: NPY with Thr32 substituted to Pro | – | Receptor selectivity (Y5R [2]): selective Y5R agonist
4 | W^36-NPY: NPY with Y^36 substituted by Trp | 2 | –
